Measured values from ChEMBL document CHEMBL3045941, “-Methyl as a bioisostere for the oxygen link between the aromatic rings of aryloxyphenoxypropionate herbicides” (Bioorg Med Chem Lett, 1997).
Activity calls are given as the source filed them. No cut-off for these calls is given here.

Experiments:
Echinochloa crus-galli [1] = assay: Post-emergent herbicidal activity against Echinochloa crus-galli (barnyard grass) at <2 g/ha measured after 13 days under green house conditions; assay type: functional, organism-based
Echinochloa crus-galli [2] = assay: Post-emergent herbicidal activity against Echinochloa crus-galli (barnyard grass) at 100 g/ha measured after 13 days under green house conditions; assay type: functional
Setaria viridis [3] = assay: Post-emergent herbicidal activity against Setaria viridis (green foxtail) at <2 g/ha measured after 13 days under green house conditions; assay type: functional, organism-based
Setaria viridis [4] = assay: Post-emergent herbicidal activity against Setaria viridis (green foxtail) at 100 g/ha measured after 13 days under green house conditions; assay type: functional
Sorghum halepense [5] = assay: Post-emergent herbicidal activity against Sorghum halepense (Johnson grass) at 100 g/ha measured after 13 days under green house conditions; assay type: functional
Avena fatua [6] = assay: Post-emergent herbicidal activity against Avena fatua at <2 g/ha measured after 13 days under green house conditions; assay type: functional, organism-based
Avena fatua [7] = assay: Post-emergent herbicidal activity against Avena fatua at 100 g/ha measured after 13 days under green house conditions; assay type: functional
Triticum aestivum [8] = assay: Phytotoxicity against Triticum aestivum (wheat) at two to four-leaf growth stage at <2 g/ha measured after 13 days under green house conditions; assay type: organism-based; conditions: in vivo, 312 h
Triticum aestivum [9] = assay: Phytotoxicity against Triticum aestivum (wheat) at two to four-leaf growth stage at 100 g/ha measured after 13 days under green house conditions; assay type: organism-based; conditions: in vivo, 312 h
Oryza sativa [10] = assay: Phytotoxicity against Oryza sativa (rice) plant at two to four-leaf growth stage at <2 g/ha measured after 13 days under green house conditions; assay type: organism-based; conditions: in vivo, 312 h
Sorghum halepense [11] = assay: Post-emergent herbicidal activity against Sorghum halepense (Johnson grass) at <2 g/ha measured after 13 days under green house conditions; assay type: functional, organism-based
Oryza sativa [12] = assay: Phytotoxicity against Oryza sativa (rice) plant at two to four-leaf growth stage at 100 g/ha measured after 13 days under green house conditions; assay type: organism-based; conditions: in vivo, 312 h
Zea mays [13] = assay: Phytotoxicity against Zea mays (maize) plant at two to four-leaf growth stage at <2 g/ha measured after 13 days under green house conditions; assay type: organism-based; conditions: in vivo, 312 h
Zea mays [14] = assay: Phytotoxicity against Zea mays (maize) plant at two to four-leaf growth stage at 100 g/ha measured after 13 days under green house conditions; assay type: organism-based; conditions: in vivo, 312 h
[15] = molecular target: Acetyl-CoA carboxylase (Hordeum vulgare) (UniProt Q3V4F7+Q3V4I7+Q947J4+Q947J5+Q40010+Q5S741+Q5S747); assay: Inhibition of acetyl-CoA carboxylase in Hordeum vulgare (barley) leaves; assay type: protein assay
Echinochloa crus-galli [16] = assay: Post-emergent herbicidal activity against Echinochloa crus-galli (barnyard grass) at 12.5 g/ha measured after 13 days under green house conditions; assay type: functional
Echinochloa crus-galli [17] = assay: Post-emergent herbicidal activity against Echinochloa crus-galli (barnyard grass) at 50 g/ha measured after 13 days under green house conditions; assay type: functional
Setaria viridis [18] = assay: Post-emergent herbicidal activity against Setaria viridis (green foxtail) at 12.5 g/ha measured after 13 days under green house conditions; assay type: functional
Setaria viridis [19] = assay: Post-emergent herbicidal activity against Setaria viridis (green foxtail) at 50 g/ha measured after 13 days under green house conditions; assay type: functional
Sorghum halepense [20] = assay: Post-emergent herbicidal activity against Sorghum halepense (Johnson grass) at 50 g/ha measured after 13 days under green house conditions; assay type: functional
Avena fatua [21] = assay: Post-emergent herbicidal activity against Avena fatua at 12.5 g/ha measured after 13 days under green house conditions; assay type: functional
Avena fatua [22] = assay: Post-emergent herbicidal activity against Avena fatua at 50 g/ha measured after 13 days under green house conditions; assay type: functional
Triticum aestivum [23] = assay: Phytotoxicity against Triticum aestivum (wheat) at two to four-leaf growth stage at 12.5 g/ha measured after 13 days under green house conditions; assay type: organism-based; conditions: in vivo, 312 h
Triticum aestivum [24] = assay: Phytotoxicity against Triticum aestivum (wheat) at two to four-leaf growth stage at 50 g/ha measured after 13 days under green house conditions; assay type: organism-based; conditions: in vivo, 312 h
Sorghum halepense [25] = assay: Post-emergent herbicidal activity against Sorghum halepense (Johnson grass) at 12.5 g/ha measured after 13 days under green house conditions; assay type: functional
Oryza sativa [26] = assay: Phytotoxicity against Oryza sativa (rice) plant at two to four-leaf growth stage at 12.5 g/ha measured after 13 days under green house conditions; assay type: organism-based; conditions: in vivo, 312 h
Oryza sativa [27] = assay: Phytotoxicity against Oryza sativa (rice) plant at two to four-leaf growth stage at 50 g/ha measured after 13 days under green house conditions; assay type: organism-based; conditions: in vivo, 312 h
Zea mays [28] = assay: Phytotoxicity against Zea mays (maize) plant at two to four-leaf growth stage at 12.5 g/ha measured after 13 days under green house conditions; assay type: organism-based; conditions: in vivo, 312 h
Zea mays [29] = assay: Phytotoxicity against Zea mays (maize) plant at two to four-leaf growth stage at 50 g/ha measured after 13 days under green house conditions; assay type: organism-based; conditions: in vivo, 312 h
Echinochloa crus-galli [30] = assay: Post-emergent herbicidal activity against Echinochloa crus-galli (barnyard grass) at 250 g/ha measured after 13 days under green house conditions; assay type: functional
Setaria viridis [31] = assay: Post-emergent herbicidal activity against Setaria viridis (green foxtail) at 250 g/ha measured after 13 days under green house conditions; assay type: functional
Avena fatua [32] = assay: Post-emergent herbicidal activity against Avena fatua at 250 g/ha measured after 13 days under green house conditions; assay type: functional
Triticum aestivum [33] = assay: Phytotoxicity against Triticum aestivum (wheat) at two to four-leaf growth stage at 250 g/ha measured after 13 days under green house conditions; assay type: organism-based; conditions: in vivo, 312 h
Sorghum halepense [34] = assay: Post-emergent herbicidal activity against Sorghum halepense (Johnson grass) at 250 g/ha measured after 13 days under green house conditions; assay type: functional
Oryza sativa [35] = assay: Phytotoxicity against Oryza sativa (rice) plant at two to four-leaf growth stage at 250 g/ha measured after 13 days under green house conditions; assay type: organism-based; conditions: in vivo, 312 h
Zea mays [36] = assay: Phytotoxicity against Zea mays (maize) plant at two to four-leaf growth stage at 250 g/ha measured after 13 days under green house conditions; assay type: organism-based; conditions: in vivo, 312 h

Compound	Activity (Echinochloa crus-galli [1])	Activity (Setaria viridis [3])	Activity (Avena fatua [6])	Activity (Triticum aestivum [8])	Activity (Oryza sativa [10])	Activity (Sorghum halepense [11])	Activity (Zea mays [13])	Activity (Echinochloa crus-galli [30]) [%]	Activity (Setaria viridis [31]) [%]	Activity (Avena fatua [32]) [%]	Activity (Triticum aestivum [33]) [%]	Activity (Sorghum halepense [34]) [%]	Activity (Oryza sativa [35]) [%]	Activity (Zea mays [36]) [%]	also measured
CCOC(=O)C(C)Oc1ccc(N(C)c2nc3ccccc3o2)cc1 (racemic)	inactive	inactive	inactive	Non-toxic	Non-toxic	inactive	Non-toxic	–	–	–	–	–	–	–	Activity (Echinochloa crus-galli [2]): 100%; Activity (Setaria viridis [4]): 85%; Activity (Sorghum halepense [5]): 100%; Activity (Avena fatua [7]): 70%; Activity (Triticum aestivum [9]): 85%; Activity (Oryza sativa [12]): 30%; Activity (Zea mays [14]): 100%
CCOC(=O)C(C)Oc1ccc(N(C)c2ncc3cc(Cl)ccc3n2)cc1 (racemic)	inactive	inactive	inactive	Non-toxic	Non-toxic	inactive	Non-toxic	–	–	–	–	–	–	–	Activity [15]: 1.5 µM; Activity (Echinochloa crus-galli [16]): 98%; Activity (Echinochloa crus-galli [17]): 85%; Activity (Setaria viridis [18]): 65%; Activity (Setaria viridis [19]): 98%; Activity (Sorghum halepense [20]): 98%; Activity (Avena fatua [21]): 0%; Activity (Avena fatua [22]): 15%; Activity (Triticum aestivum [23]): 35%; Activity (Triticum aestivum [24]): 65%; Activity (Sorghum halepense [25]): 65%; Activity (Oryza sativa [26]): 0%; Activity (Oryza sativa [27]): 35%; Activity (Zea mays [28]): 15%; Activity (Zea mays [29]): 65%
COC(=O)C(C)Oc1ccc(N(C)c2ncc(Cl)cn2)cc1 (racemic)	inactive	inactive	inactive	Non-toxic	Non-toxic	inactive	Non-toxic	100	85	85	85	85	70	85	–
CCOC(=O)C(C)Oc1ccc(Oc2ncc(Cl)cn2)cc1 (racemic)	inactive	inactive	inactive	Non-toxic	Non-toxic	inactive	Non-toxic	85	85	85	70	85	70	85	–
